Laboratory results published in patent US20080194701A1, “Bifunctional Enzyme with Y-Glutamylcysteine Synthetase and Glutathione Synthetase Activity and Uses Thereof” (priority 2004, published 2008).

Tests used:
[1] = system: urinary tract infection caused by E. faecalis; assay: Treatment of urinary tract infection in a patient; assay type: in vivo, human
From the text: A person weighing 50 kg presents to their physician with a urinary tract infection caused by E. faecalis. […] Two months later they return with a recurrence of the urinary tract infection due to E. faecalis.

[2] = system: vaginal colonization with S. agalactiae (Group B Streptococcus); settings: one 500 mg capsule by mouth every 6 hours from 2 days before due date
From the text: A person who is allergic to penicillin is seen for prenatal screening prior to delivery of their first child.

E. coli γ-GCS = E. coli γ-GCS (Escherichia coli, UniProt P0A6W9); settings: cited from earlier work
Human γ-GCS = molecular target: T1, Human γ-GCS (Homo sapiens, UniProt P48506); settings: cited from earlier work
T1 sequence (P48506 1-637): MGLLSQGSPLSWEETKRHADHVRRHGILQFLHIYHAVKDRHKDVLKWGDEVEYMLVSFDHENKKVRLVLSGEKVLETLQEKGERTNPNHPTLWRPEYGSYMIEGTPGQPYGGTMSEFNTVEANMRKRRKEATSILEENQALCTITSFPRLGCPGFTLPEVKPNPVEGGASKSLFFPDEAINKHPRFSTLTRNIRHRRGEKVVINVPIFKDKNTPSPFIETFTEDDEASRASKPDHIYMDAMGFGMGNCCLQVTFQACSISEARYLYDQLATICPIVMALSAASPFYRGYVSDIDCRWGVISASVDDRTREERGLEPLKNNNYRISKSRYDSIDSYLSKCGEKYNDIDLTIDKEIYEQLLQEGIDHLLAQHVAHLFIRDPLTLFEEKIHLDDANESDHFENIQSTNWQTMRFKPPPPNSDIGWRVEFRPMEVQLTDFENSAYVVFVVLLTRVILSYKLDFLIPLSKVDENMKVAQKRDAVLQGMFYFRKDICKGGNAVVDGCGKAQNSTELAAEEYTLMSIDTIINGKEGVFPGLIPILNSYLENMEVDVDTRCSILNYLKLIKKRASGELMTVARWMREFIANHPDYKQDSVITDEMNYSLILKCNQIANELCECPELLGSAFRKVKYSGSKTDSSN
T1 sequence (P48507 1-274 partner): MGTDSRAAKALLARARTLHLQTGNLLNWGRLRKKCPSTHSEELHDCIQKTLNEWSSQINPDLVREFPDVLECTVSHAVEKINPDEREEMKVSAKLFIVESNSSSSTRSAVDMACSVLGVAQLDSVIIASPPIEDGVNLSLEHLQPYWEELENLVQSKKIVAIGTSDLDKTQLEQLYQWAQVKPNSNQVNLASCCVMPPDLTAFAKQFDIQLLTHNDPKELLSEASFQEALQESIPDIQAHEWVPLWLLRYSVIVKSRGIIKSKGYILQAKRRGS

S. agalactiae γ-GCS-GS = molecular target: T2, S. agalactiae γ-GCS-GS (Streptococcus agalactiae serotype V, UniProt Q8DXM9); assay: γ-GCS activity assay based on ADP formation, S. agalactiae γ-GCS-GS; assay type: biochemical; design: corresponded to full-length S. agalactiae γ-GCS-GS with an N-terminal His8-tag; made in house; host or cells: E. coli SG13009 with pQE30-gshAB plus pREP4 or pRARE
T2 sequence (Q8DXM9 1-750): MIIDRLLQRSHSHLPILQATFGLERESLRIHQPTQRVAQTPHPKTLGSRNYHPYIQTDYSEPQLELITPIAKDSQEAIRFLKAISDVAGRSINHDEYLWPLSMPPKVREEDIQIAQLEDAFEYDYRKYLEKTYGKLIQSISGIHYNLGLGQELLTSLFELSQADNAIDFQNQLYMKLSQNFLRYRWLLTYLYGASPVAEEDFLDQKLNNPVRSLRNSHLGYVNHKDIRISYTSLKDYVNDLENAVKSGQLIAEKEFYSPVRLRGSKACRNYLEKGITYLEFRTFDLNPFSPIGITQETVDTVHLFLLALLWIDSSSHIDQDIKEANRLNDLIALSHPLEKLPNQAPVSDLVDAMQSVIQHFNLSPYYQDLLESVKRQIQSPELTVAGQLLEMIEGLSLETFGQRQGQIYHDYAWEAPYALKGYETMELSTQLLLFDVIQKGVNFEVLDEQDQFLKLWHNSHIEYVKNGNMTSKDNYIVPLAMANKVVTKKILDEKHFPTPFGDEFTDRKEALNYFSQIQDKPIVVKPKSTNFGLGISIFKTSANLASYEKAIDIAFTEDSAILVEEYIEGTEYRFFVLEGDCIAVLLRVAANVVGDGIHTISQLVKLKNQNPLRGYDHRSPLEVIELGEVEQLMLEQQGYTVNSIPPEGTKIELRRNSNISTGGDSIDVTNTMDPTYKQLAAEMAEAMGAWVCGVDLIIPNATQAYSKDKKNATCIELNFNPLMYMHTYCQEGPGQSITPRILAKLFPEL
Experimental: In Table 1, a unit was defined as the amount of enzyme activity required to catalyze the formation of 1 μmol of product per hour. Specific activity was shown as units per mg protein. Activity was determined at 37° C. based on ADP formation in reaction mixtures containing L-glutamate and L-cysteine and using pyruvate kinase and lactate dehydrogenase to couple ADP formation to NADH oxidation, which was monitored at 340 nm.
Exp. Purif. 13, 268-276 (1998).
At set time points ranging from one to 30 minutes, 5 μl aliquots were removed and assayed for residual enzyme activity using the standard γ-GCS assay based on ADP formation.

E. coli γ-GCS, sequence (P0A6W9 whole entry): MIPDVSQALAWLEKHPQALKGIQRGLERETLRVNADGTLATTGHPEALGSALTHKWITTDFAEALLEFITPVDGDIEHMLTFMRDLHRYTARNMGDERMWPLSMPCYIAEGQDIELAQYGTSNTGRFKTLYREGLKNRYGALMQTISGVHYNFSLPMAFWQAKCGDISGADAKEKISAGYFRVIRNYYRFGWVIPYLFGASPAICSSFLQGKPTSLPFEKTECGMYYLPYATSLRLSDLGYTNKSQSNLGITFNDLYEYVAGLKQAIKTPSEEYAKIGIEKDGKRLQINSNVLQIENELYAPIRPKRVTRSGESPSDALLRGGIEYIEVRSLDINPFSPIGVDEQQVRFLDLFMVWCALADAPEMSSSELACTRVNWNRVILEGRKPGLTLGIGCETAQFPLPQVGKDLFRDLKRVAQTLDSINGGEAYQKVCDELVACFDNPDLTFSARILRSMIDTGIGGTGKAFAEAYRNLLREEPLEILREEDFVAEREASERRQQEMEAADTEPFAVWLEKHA

In the case of `CCCC[S@](=N)(=O)CC[C@H](N)C(=O)O` [L-S—BSO, L-buthionine-S-sulfoximine, reference compound], the outcome of infection ([1]; one 500 mg capsule by mouth every 6 hours for two days) is reported as “without resolution of the infection”, the outcome of infection ([1]; two 500 mg capsules every 6 hours, fourth day) is reported as “urine is free of detectable bacteria” and the outcome of colonization [2] is reported as “no S. agalactiae bacteria are detected”. For the same compound, the Kd (E. coli γ-GCS) was 66 µM, the Ki (E. coli γ-GCS) was 66 µM and the kinact (E. coli γ-GCS) was roughly 0.30 min⁻¹. For the same compound, the t1/2 (E. coli γ-GCS; half-life for inactivation) was 2.3 min, the Kd (Human γ-GCS) was 25 µM and the Ki (Human γ-GCS) was 25 µM. For the same compound, the kinact (Human γ-GCS) was 3.9 min⁻¹, the t1/2 (Human γ-GCS; half-life for inactivation) was 0.183 min and the Kd (S. agalactiae γ-GCS-GS) was 2800 ± 300 µM. For the same compound, the Ki (S. agalactiae γ-GCS-GS) was 4900 ± 200 µM and the kinact (S. agalactiae γ-GCS-GS) was 0.00217 s⁻¹.
